Molecular target: GST-Bcl-2 (Homo sapiens (Human), UniProt P10415)
Test: Time Resolved-Fluorescence Resonance Energy Transfer (TR-FRET) Bcl-2 binding assay
Conditions: not given
Summary of the method: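 Competition TR-FRET: GST-Bcl-2 with fluorescent Bak peptide probe and Tb-anti-GST antibody, compounds serially diluted from 50 μM (2× start, 10% DMSO).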

Sequence of GST-Bcl-2 (P10415 whole entry): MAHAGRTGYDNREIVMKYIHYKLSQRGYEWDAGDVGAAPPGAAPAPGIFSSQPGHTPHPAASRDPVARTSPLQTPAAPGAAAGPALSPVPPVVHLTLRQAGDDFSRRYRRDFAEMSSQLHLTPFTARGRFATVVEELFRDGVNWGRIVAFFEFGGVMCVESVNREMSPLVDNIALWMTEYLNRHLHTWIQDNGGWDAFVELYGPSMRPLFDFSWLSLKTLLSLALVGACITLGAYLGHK

Row | Compound | Ki [nM]
1 | CC1(C)CCC(CN2CCN(c3ccc(C(=O)NS(=O)(=O)c4ccc(N[C@H]5CC[C@H](N6CCOCC6)CC5)c([N+](=O)[O-])c4)c(Oc4cnc(N)c(Cl)c4)c3)CC2)=C(c2ccc(Cl)cc2)C1 [Example 324, Trans-2-[(6-amino-5-chloropyridin-3-yl)oxy]-4-(4-{[2-(4-chlorophenyl)-4,4-dimethylcyclohex-1-en-1-yl]methyl}piperazin-1-yl)-N-({4-[(4-morpholin-4-ylcyclohexyl)amino]-3-nitrophenyl}sulfonyl)benzamide] | < 0.01

Same assay, conditions: GST-Bcl-2 1 nM, F-Bak peptide probe 100 nM, Tb-anti-GST antibody 1 nM; Ki by Wang's equation

Row | Compound | Ki [nM]
2 | CC1(C)CCC(CN2CCN(c3ccc(C(=O)NS(=O)(=O)c4ccc(NN5CCS(=O)(=O)CC5)c([N+](=O)[O-])c4)c(Oc4cc5cc[nH]c5cc4F)c3)CC2)=C(c2ccc(Cl)cc2)C1 [Example 331, 4-(4-{[2-(4-chlorophenyl)-4,4-dimethylcyclohex-1-en-1-yl]methyl}piperazin-1-yl)-N-({4-[(1,1-dioxidothiomorpholin-4-yl)amino]-3-nitrophenyl}sulfonyl)-2-[(6-fluoro-1H-indol-5-yl)oxy]benzamide] | 0.238
3 | CN(C)CC(=O)N1CCC(F)(COc2ncc(S(=O)(=O)NC(=O)c3ccc(N4CCN(CC5=C(c6ccc(Cl)cc6)CC(C)(C)CC5)CC4)cc3Oc3cnc(N)c(Cl)c3)cc2Cl)CC1 [Example 393, 2-[(6-amino-5-chloropyridin-3-yl)oxy]-N-[(5-chloro-6-{[1-(N,N-dimethylglycyl)-4-fluoropiperidin-4-yl]methoxy}pyridin-3-yl)sulfonyl]-4-(4-{[2-(4-chlorophenyl)-4,4-dimethylcyclohex-1-en-1-yl]methyl}piperazin-1-yl)benzamide] | < 0.01
4 | CN1CCC(Nc2ccc(S(=O)(=O)NC(=O)c3ccc(N4CCN(CC5=C(c6ccc(Cl)cc6)CC(C)(C)CC5)CC4)cc3Oc3ccc(F)cc3Cl)cc2[N+](=O)[O-])CC1 [Example 61, 2-(2-chloro-4-fluorophenoxy)-4-(4-((2-(4-chlorophenyl)-4,4-dimethylcyclohex-1-en-1-yl)methyl)piperazin-1-yl)-N-((4-((1-methylpiperidin-4-yl)amino)-3-nitrophenyl)sulfonyl)benzamide] | 0.22
5 | CC1(C)CCC(CN2CCN(c3ccc(C(=O)NS(=O)(=O)c4ccc(NCC5CCOCC5)c([N+](=O)[O-])c4)c(Oc4cc(Br)nc(NC(=O)OC(C)(C)C)c4)c3)CC2)=C(c2ccc(Cl)cc2)C1 [Example 372, tert-butyl 6-bromo-4-(5-(4-{[2-(4-chlorophenyl)-4,4-dimethylcyclohex-1-en-1-yl]methyl}piperazin-1-yl)-2-{[({3-nitro-4-[(tetrahydro-2H-pyran-4-ylmethyl)amino]phenyl}sulfonyl)amino]carbonyl}phenoxy)pyridin-2-ylcarbamate] | 15
6 | CC1(C)CCC(CN2CCN(c3ccc(C(=O)NS(=O)(=O)c4ccc(NC5CCN(C6CC6)CC5)c([N+](=O)[O-])c4)c(Oc4cccc(F)c4F)c3)CC2)=C(c2ccc(Cl)cc2)C1 [Example 121, 4-(4-{[2-(4-chlorophenyl)-4,4-dimethylcyclohex-1-en-1-yl]methyl}piperazin-1-yl)-N-({4-[(1-cyclopropylpiperidin-4-yl)amino]-3-nitrophenyl}sulfonyl)-2-(2,3-difluorophenoxy)benzamide] | 0.081
7 | Nc1cccc(Oc2cc(N3CCN(Cc4ccccc4-c4ccc(Cl)cc4)CC3)ccc2C(=O)NS(=O)(=O)c2ccc(NCC3CCOCC3)c([N+](=O)[O-])c2)c1 [Example 19, 2-(3-aminophenoxy)-4-(4-((4′-chloro-1,1′-biphenyl-2-yl)methyl)piperazin-1-yl)-N-((3-nitro-4-((tetrahydro-2H-pyran-4-ylmethyl)amino)phenyl)sulfonyl)benzamide] | 1.68
8 | O=C(NS(=O)(=O)c1ccc(NCC2CCOCC2)c([N+](=O)[O-])c1)c1ccc(N2CCN(Cc3ccccc3-c3ccc(Cl)cc3)CC2)cc1Oc1ccc(OCc2ccccc2)cc1 [Example 88, 2-(4-(benzyloxy)phenoxy)-4-(4-((4′-chloro-1,1′-biphenyl-2-yl)methyl)piperazin-1-yl)-N-((3-nitro-4-((tetrahydro-2H-pyran-4-ylmethyl)amino)phenyl)sulfonyl)benzamide] | > 1200
9 | CC1(C)CCC(CN2CCN(c3ccc(C(=O)NS(=O)(=O)c4ccc(NC5CCN(CC6CC6)CC5)c([N+](=O)[O-])c4)c(Oc4ccccc4Cl)c3)CC2)=C(c2ccc(Cl)cc2)C1 [Example 188, 2-(2-chlorophenoxy)-4-(4-{[2-(4-chlorophenyl)-4,4-dimethylcyclohex-1-en-1-yl]methyl}piperazin-1-yl)-N-[(4-{[1-(cyclopropylmethyl)piperidin-4-yl]amino}-3-nitrophenyl)sulfonyl]benzamide] | 0.073
10 | CN1CCC(Nc2ccc(S(=O)(=O)NC(=O)c3ccc(N4CCN(CC5=C(c6ccc(Cl)cc6)CC(C)(C)CC5)CC4)cc3Oc3cc(F)c4[nH]ccc4c3)cc2[N+](=O)[O-])CC1 [Example 50, 4-(4-((2-(4-chlorophenyl)-4,4-dimethylcyclohex-1-en-1-yl)methyl)piperazin-1-yl)-2-((7-fluoro-1H-indol-5-yl)oxy)-N-((4-((1-methylpiperidin-4-yl)amino)-3-nitrophenyl)sulfonyl)benzamide] | 0.062
11 | CCN1CCOCC1COc1ccc(S(=O)(=O)NC(=O)c2ccc(N3CCN(CC4=C(c5ccc(Cl)cc5)CC(C)(C)CC4)CC3)cc2Oc2cc3cc[nH]c3cc2F)cc1[N+](=O)[O-] (centres unmarked) [Example 328, 4-(4-{[2-(4-chlorophenyl)-4,4-dimethylcyclohex-1-en-1-yl]methyl}piperazin-1-yl)-N-({4-[(4-ethylmorpholin-3-yl)methoxy]-3-nitrophenyl}sulfonyl)-2-[(6-fluoro-1H-indol-5-yl)oxy]benzamide] | 0.068
12 | CC1(C)CCC(CN2CCN(c3ccc(C(=O)NS(=O)(=O)c4ccc(NC5CCN(C6CCOCC6)CC5)c([N+](=O)[O-])c4)c(Nc4ccccc4Cl)c3)CC2)=C(c2ccc(Cl)cc2)C1 [Example 226, 2-[(2-chlorophenyl)amino]-4-(4-{[2-(4-chlorophenyl)-4,4-dimethylcyclohex-1-en-1-yl]methyl}piperazin-1-yl)-N-({3-nitro-4-[(1-tetrahydro-2H-pyran-4-ylpiperidin-4-yl)amino]phenyl}sulfonyl)benzamide] | 7.59
13 | CC1(C)CCC(CN2CCN(c3ccc(C(=O)NS(=O)(=O)c4ccc(NC5CCN(C6CCOCC6)CC5)c([N+](=O)[O-])c4)c(Oc4cccc(F)c4F)c3)CC2)=C(c2ccc(Cl)cc2)C1 [Example 49, 4-(4-((2-(4-chlorophenyl)-4,4-dimethylcyclohex-1-en-1-yl)methyl)piperazin-1-yl)-2-(2,3-difluorophenoxy)-N-((3-nitro-4-((1-tetrahydro-2H-pyran-4-ylpiperidin-4-yl)amino)phenyl)sulfonyl)benzamide] | 0.062
14 | CC(=O)Nc1cccc(Oc2cc(N3CCN(Cc4ccccc4-c4ccc(Cl)cc4)CC3)ccc2C(=O)NS(=O)(=O)c2ccc(NCC3CCOCC3)c([N+](=O)[O-])c2)c1 [Example 17, 2-(3-(acetylamino)phenoxy)-4-(4-((4′-chloro-1,1′-biphenyl-2-yl)methyl)piperazin-1-yl)-N-((3-nitro-4-((tetrahydro-2H-pyran-4-ylmethyl)amino)phenyl)sulfonyl)benzamide] | 5.58
15 | CCN(Cc1cccc(Oc2cc(N3CCN(Cc4ccccc4-c4ccc(Cl)cc4)CC3)ccc2C(=O)NS(=O)(=O)c2ccc(NCC3CCOCC3)c([N+](=O)[O-])c2)c1)C(=O)OC(C)(C)C [Example 79, tert-butyl 3-(5-(4-((4′-chloro-1,1′-biphenyl-2-yl)methyl)piperazin-1-yl)-2-((((3-nitro-4-((tetrahydro-2H-pyran-4-ylmethyl)amino)phenyl)sulfonyl)amino)carbonyl)phenoxy)benzyl(ethyl)carbamate] | 99.8
16 | CC1(C)CCC(CN2CCN(c3ccc(C(=O)NS(=O)(=O)c4ccc(NCC5CCOCC5)c([N+](=O)[O-])c4)c(Oc4cc5cc[nH]c5cc4Cl)c3)CC2)=C(c2ccc(Cl)cc2)C1 [Example 276, 2-[(6-chloro-1H-indol-5-yl)oxy]-4-(4-{[2-(4-chlorophenyl)-4,4-dimethylcyclohex-1-en-1-yl]methyl}piperazin-1-yl)-N-({3-nitro-4-[(tetrahydro-2H-pyran-4-ylmethyl)amino]phenyl}sulfonyl)benzamide] | 0.199
17 | CN1CCC(Nc2ccc(S(=O)(=O)NC(=O)c3ccc(N4CCN(CC5=C(c6ccc(Cl)cc6)CC(C)(C)CC5)CC4)cc3Oc3cc(Cl)ccc3Cl)cc2[N+](=O)[O-])CC1 [Example 60, 4-(4-((2-(4-chlorophenyl)-4,4-dimethylcyclohex-1-en-1-yl)methyl)piperazin-1-yl)-2-(2,5-dichlorophenoxy)-N-((4-((1-methylpiperidin-4-yl)amino)-3-nitrophenyl)sulfonyl)benzamide] | 0.187
18 | C#Cc1cc(S(=O)(=O)NC(=O)c2ccc(N3CCN(CC4=C(c5ccc(Cl)cc5)CC(C)(C)CC4)CC3)cc2Oc2cc3cc[nH]c3cc2F)cnc1OCC1CCOCC1 [Example 322, 4-(4-{[2-(4-chlorophenyl)-4,4-dimethylcyclohex-1-en-1-yl]methyl}piperazin-1-yl)-N-{[5-ethynyl-6-(tetrahydro-2H-pyran-4-ylmethoxy)pyridin-3-yl]sulfonyl}-2-[(6-fluoro-1H-indol-5-yl)oxy]benzamide] | 4.53
19 | CN(C)CCCNc1ccc(S(=O)(=O)NC(=O)c2ccc(N3CCN(CC4=C(c5ccc(Cl)cc5)CC(C)(C)CC4)CC3)cc2Oc2cccc3[nH]cc(CN4CCN(C)CC4)c23)cc1[N+](=O)[O-] [Example 213, 4-(4-{[2-(4-chlorophenyl)-4,4-dimethylcyclohex-1-en-1-yl]methyl}piperazin-1-yl)-N-[(4-{[3-(dimethylamino)propyl]amino}-3-nitrophenyl)sulfonyl]-2-({3-[(4-methylpiperazin-1-yl)methyl]-1H-indol-4-yl}oxy)benzamide] | 0.031
20 | 2-(2-chlorophenoxy)-4-(4-{([2-(4-chlorophenyl)-4,4-dimethylcyclohex-1-en-1-yl]methyl}piperazin-1-yl)-N-({4-[(1,4-dimethylpiperidin-4-yl)amino]-3-nitrophenyl}sulfonyl)benzamide [Example 168] | 28.3

Source: US8952157B2, “Apoptosis-inducing agents for the treatment of cancer and immune and autoimmune diseases” (AbbVie Inc., priority 2008, dated 2015)
